According to PubChem BioAssay (NCI):
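96-well plates; 48 h exposure; 5 concentrations. Endpoints by linear interpolation between flanking doses. Not reached: highest tested concentration assigned. GI50 = concentration required for 50% inhibition of growth. TGI marks complete inhibition of growth.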

Tests used:
Assay in all cases: NCI tumour cell line growth inhibition, 48 h
DMS 273 small cell lung = system: DMS 273 small cell lung
HOP-18 NSCLC = system: HOP-18 NSCLC
KM20L2 colon = system: KM20L2 colon
LXFL 529 NSCLC = system: LXFL 529 NSCLC
M19-MEL melanoma = system: M19-MEL melanoma
MCF7 breast = system: MCF7 breast
MDA-N = system: MDA-N
RXF-631 renal = system: RXF-631 renal
XF 498 CNS = system: XF 498 CNS
P388 leukemia = system: P388 leukemia
SN12K1 renal = system: SN12K1 renal

## CC(=O)Oc1ccc(C(c2ccc(OC(C)=O)cc2)c2ccccn2)cc1
DMS 273 small cell lung
  TGI: > 100 µM
HOP-18 NSCLC
  TGI: > 100 µM
KM20L2 colon
  TGI: > 100 µM
LXFL 529 NSCLC
  TGI: > 100 µM
M19-MEL melanoma
  TGI: > 100 µM
MCF7 breast
  GI50: 0.516 µM
  TGI: > 100 µM
MDA-N
  TGI: > 100 µM
RXF-631 renal
  TGI: > 100 µM
XF 498 CNS
  TGI: > 86.1 µM

## O=C(O)/C=C/C(=O)N1C/C(=C\c2ccccc2)C(=O)/C(=C/c2ccccc2)C1
DMS 273 small cell lung
  TGI: 20 µM
HOP-18 NSCLC
  TGI: 26.3 µM
KM20L2 colon
  TGI: 17.6 µM
LXFL 529 NSCLC
  TGI: 3.72 µM
M19-MEL melanoma
  TGI: 9.41 µM
MCF7 breast
  TGI: 18.3 µM
P388 leukemia
  TGI: 41.6 µM
SN12K1 renal
  TGI: 3.57 µM
XF 498 CNS
  TGI: 15.8 µM

## CCOC(=O)c1c(C)c(C)n2c1NC(=O)C2
DMS 273 small cell lung
  TGI: > 100 µM
HOP-18 NSCLC
  TGI: > 100 µM
KM20L2 colon
  TGI: > 100 µM
LXFL 529 NSCLC
  TGI: > 100 µM
M19-MEL melanoma
  TGI: > 100 µM
MCF7 breast
  TGI: 84 µM
MDA-N
  TGI: > 100 µM
RXF-631 renal
  TGI: > 100 µM
XF 498 CNS
  TGI: 61.1 µM

## Cc1cc2c(C)n(Cc3ccc(Cl)cc3Cl)nc2c(C(=O)O)c1C
DMS 273 small cell lung
  TGI: > 100 µM
HOP-18 NSCLC
  TGI: > 100 µM
KM20L2 colon
  TGI: > 100 µM
LXFL 529 NSCLC
  TGI: > 100 µM
M19-MEL melanoma
  TGI: > 100 µM
RXF-631 renal
  TGI: > 100 µM
XF 498 CNS
  TGI: > 100 µM

## O=C(NO)c1ccc(O)c(O)c1
DMS 273 small cell lung
  TGI: 77.8 µM
HOP-18 NSCLC
  TGI: > 100 µM
KM20L2 colon
  TGI: > 100 µM
LXFL 529 NSCLC
  TGI: > 100 µM
M19-MEL melanoma
  TGI: > 100 µM
RXF-631 renal
  TGI: > 100 µM
XF 498 CNS
  TGI: > 100 µM
